{
  "source": "PubChem BioAssay (NCI)",
  "assay_in_all_cases": "inhibition of tumour cell growth, NCI panel, 48 h",
  "key": {"786-0 renal": {"system": "786-0 renal"}, "A498 renal": {"system": "A498 renal"}, "A549 NSCLC": {"system": "A549 NSCLC"}, "ACHN renal": {"system": "ACHN renal"}, "BT-549 breast": {"system": "BT-549 breast"}, "CAKI-1 renal": {"system": "CAKI-1 renal"}, "CCRF-CEM leukemia": {"system": "CCRF-CEM leukemia"}, "COLO 205 colon": {"system": "COLO 205 colon"}, "DU-145 prostate": {"system": "DU-145 prostate"}, "EKVX NSCLC": {"system": "EKVX NSCLC"}, "HCC-2998 colon": {"system": "HCC-2998 colon"}, "HCT-116 colon": {"system": "HCT-116 colon"}, "HCT-15 colon": {"system": "HCT-15 colon"}, "HL-60(TB) leukemia": {"system": "HL-60(TB) leukemia"}, "HOP-62 NSCLC": {"system": "HOP-62 NSCLC"}, "HOP-92 NSCLC": {"system": "HOP-92 NSCLC"}, "HS 578T breast": {"system": "HS 578T breast"}, "HT29 colon": {"system": "HT29 colon"}, "IGROV1 ovarian": {"system": "IGROV1 ovarian"}, "K-562 leukemia": {"system": "K-562 leukemia"}, "KM12 colon": {"system": "KM12 colon"}, "LOX IMVI melanoma": {"system": "LOX IMVI melanoma"}, "M14 melanoma": {"system": "M14 melanoma"}, "MALME-3M melanoma": {"system": "MALME-3M melanoma"}, "MCF7 breast": {"system": "MCF7 breast"}, "MDA-MB-231 breast": {"system": "MDA-MB-231 breast"}, "MDA-MB-435": {"system": "MDA-MB-435"}, "MOLT-4 leukemia": {"system": "MOLT-4 leukemia"}},
  "note": "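Tested at 5 concentrations; 48 h exposure; 96-well plates; endpoints linearly interpolated, else capped at highest concentration. GI50 is the concentration that inhibits growth by half. TGI is the concentration that stops growth completely.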",
  "data": [
    {"compound": "Cc1c([C@H](C(Cl)Cl)[C@H](O)[C@H]2C[C@H](C)C(=O)O2)ccc2c1C(=O)[C@H]1[C@H]2C[C@@H](Br)[C@@]23O[C@@H](CO[C@H]2O)CC13C", "note": "(stereo not given in full)", "values": [
      {"measurement": "GI50", "setting": "786-0 renal", "result": 481, "unit": "nM"},
      {"measurement": "TGI", "setting": "786-0 renal", "result": 21900, "unit": "nM"},
      {"measurement": "GI50", "setting": "A498 renal", "result": 304, "unit": "nM"},
      {"measurement": "TGI", "setting": "A498 renal", "result": "> 11100", "unit": "nM"},
      {"measurement": "GI50", "setting": "A549 NSCLC", "result": 435, "unit": "nM"},
      {"measurement": "TGI", "setting": "A549 NSCLC", "result": "> 50000", "unit": "nM"},
      {"measurement": "GI50", "setting": "ACHN renal", "result": 2260, "unit": "nM"},
      {"measurement": "TGI", "setting": "ACHN renal", "result": "> 50000", "unit": "nM"},
      {"measurement": "GI50", "setting": "BT-549 breast", "result": 1010, "unit": "nM"},
      {"measurement": "TGI", "setting": "BT-549 breast", "result": "> 36300", "unit": "nM"},
      {"measurement": "GI50", "setting": "CAKI-1 renal", "result": 798, "unit": "nM"},
      {"measurement": "TGI", "setting": "CAKI-1 renal", "result": "> 29500", "unit": "nM"},
      {"measurement": "GI50", "setting": "CCRF-CEM leukemia", "result": 330, "unit": "nM"},
      {"measurement": "TGI", "setting": "CCRF-CEM leukemia", "result": "> 50000", "unit": "nM"},
      {"measurement": "GI50", "setting": "COLO 205 colon", "result": 213, "unit": "nM"},
      {"measurement": "TGI", "setting": "COLO 205 colon", "result": 1090, "unit": "nM"},
      {"measurement": "GI50", "setting": "DU-145 prostate", "result": 157, "unit": "nM"},
      {"measurement": "TGI", "setting": "DU-145 prostate", "result": 2050, "unit": "nM"},
      {"measurement": "GI50", "setting": "EKVX NSCLC", "result": 695, "unit": "nM"},
      {"measurement": "TGI", "setting": "EKVX NSCLC", "result": "> 50000", "unit": "nM"},
      {"measurement": "GI50", "setting": "HCC-2998 colon", "result": 215, "unit": "nM"},
      {"measurement": "TGI", "setting": "HCC-2998 colon", "result": 1120, "unit": "nM"},
      {"measurement": "GI50", "setting": "HCT-116 colon", "result": 206, "unit": "nM"},
      {"measurement": "TGI", "setting": "HCT-116 colon", "result": 5070, "unit": "nM"},
      {"measurement": "GI50", "setting": "HCT-15 colon", "result": 373, "unit": "nM"},
      {"measurement": "TGI", "setting": "HCT-15 colon", "result": "> 50000", "unit": "nM"},
      {"measurement": "GI50", "setting": "HL-60(TB) leukemia", "result": 112, "unit": "nM"},
      {"measurement": "TGI", "setting": "HL-60(TB) leukemia", "result": "> 50000", "unit": "nM"},
      {"measurement": "GI50", "setting": "HOP-62 NSCLC", "result": 571, "unit": "nM"},
      {"measurement": "TGI", "setting": "HOP-62 NSCLC", "result": "> 50000", "unit": "nM"},
      {"measurement": "GI50", "setting": "HOP-92 NSCLC", "result": 636, "unit": "nM"},
      {"measurement": "TGI", "setting": "HOP-92 NSCLC", "result": "> 45300", "unit": "nM"},
      {"measurement": "GI50", "setting": "HS 578T breast", "result": 708, "unit": "nM"},
      {"measurement": "TGI", "setting": "HS 578T breast", "result": "> 39500", "unit": "nM"},
      {"measurement": "GI50", "setting": "HT29 colon", "result": 179, "unit": "nM"},
      {"measurement": "TGI", "setting": "HT29 colon", "result": "> 50000", "unit": "nM"},
      {"measurement": "GI50", "setting": "IGROV1 ovarian", "result": 845, "unit": "nM"},
      {"measurement": "TGI", "setting": "IGROV1 ovarian", "result": "> 29600", "unit": "nM"},
      {"measurement": "GI50", "setting": "K-562 leukemia", "result": 217, "unit": "nM"},
      {"measurement": "TGI", "setting": "K-562 leukemia", "result": "> 50000", "unit": "nM"},
      {"measurement": "GI50", "setting": "KM12 colon", "result": 260, "unit": "nM"},
      {"measurement": "TGI", "setting": "KM12 colon", "result": "> 16600", "unit": "nM"},
      {"measurement": "GI50", "setting": "LOX IMVI melanoma", "result": 602, "unit": "nM"},
      {"measurement": "TGI", "setting": "LOX IMVI melanoma", "result": "> 50000", "unit": "nM"},
      {"measurement": "GI50", "setting": "M14 melanoma", "result": 207, "unit": "nM"},
      {"measurement": "TGI", "setting": "M14 melanoma", "result": 1180, "unit": "nM"},
      {"measurement": "GI50", "setting": "MALME-3M melanoma", "result": 275, "unit": "nM"},
      {"measurement": "TGI", "setting": "MALME-3M melanoma", "result": "> 50000", "unit": "nM"},
      {"measurement": "GI50", "setting": "MCF7 breast", "result": 172, "unit": "nM"},
      {"measurement": "TGI", "setting": "MCF7 breast", "result": "> 50000", "unit": "nM"},
      {"measurement": "GI50", "setting": "MDA-MB-231 breast", "result": 561, "unit": "nM"},
      {"measurement": "TGI", "setting": "MDA-MB-231 breast", "result": "> 15200", "unit": "nM"},
      {"measurement": "GI50", "setting": "MDA-MB-435", "result": 136, "unit": "nM"},
      {"measurement": "TGI", "setting": "MDA-MB-435", "result": 425, "unit": "nM"},
      {"measurement": "GI50", "setting": "MOLT-4 leukemia", "result": 1120, "unit": "nM"}
    ]}
  ]
}
